Measurements taken from patent US10508085B2, “Compounds and methods for IDO and TDO modulation, and indications therefor” (Plexxikon Inc., priority 2016, dated 2019).

Key:
[1] = target: T1, Human Indoleamine 2,3-dioxygenase (IDO) (Homo sapiens, UniProt P14902); assay: Human IDO enzymatic assay (kynurenine level); assay type: biochemical; conditions: 6 nM IDO, 10 μM L-Trp; geometric mean; read-out: IDO1 GMean: IC50 (μM) (Biochemical Assay)
T1 construct: His tag (N); made in house; host or cells: E. coli
T1 sequence (P14902 whole entry): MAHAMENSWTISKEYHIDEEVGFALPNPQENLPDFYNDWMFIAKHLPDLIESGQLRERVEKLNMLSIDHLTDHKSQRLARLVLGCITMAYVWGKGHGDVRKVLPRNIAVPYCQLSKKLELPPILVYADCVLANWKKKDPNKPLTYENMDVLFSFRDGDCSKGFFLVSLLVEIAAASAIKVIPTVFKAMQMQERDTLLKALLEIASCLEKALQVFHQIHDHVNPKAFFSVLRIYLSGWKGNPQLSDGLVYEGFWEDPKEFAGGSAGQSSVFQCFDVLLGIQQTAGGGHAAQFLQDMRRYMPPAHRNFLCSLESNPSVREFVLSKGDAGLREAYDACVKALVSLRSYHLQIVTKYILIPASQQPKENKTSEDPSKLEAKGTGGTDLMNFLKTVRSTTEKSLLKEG
Outline: (§1)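 N-His human IDO (6 nM, 10 μM L-Trp, 5 μM methylene blue, 20 min) or TDO (1 nM, 350 μM L-Trp, 0.4 μM methylene blue, 70 min) run at room temp in pH 6.5 phosphate with ascorbate, catalase, Tween 20. TCA stop, 30 min 50 °C converts N-formylkynurenine to kynurenine; IC50 by nonlinear regression.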

[2] = target: T2, human TDO (TDO-expressing HEK293 cells) (Homo sapiens, UniProt P48775); assay: Cell based kynurenine assay, TDO-expressing HEK293 cell clones; conditions: TDO-expressing HEK293 cells, 24 hours incubation; geometric mean; read-out: HEK293 TDO Kynurenine GMean IC50 (μM) (Cellular Assay)
T2 construct: expressed in transfected cells
T2 sequence (P48775 whole entry): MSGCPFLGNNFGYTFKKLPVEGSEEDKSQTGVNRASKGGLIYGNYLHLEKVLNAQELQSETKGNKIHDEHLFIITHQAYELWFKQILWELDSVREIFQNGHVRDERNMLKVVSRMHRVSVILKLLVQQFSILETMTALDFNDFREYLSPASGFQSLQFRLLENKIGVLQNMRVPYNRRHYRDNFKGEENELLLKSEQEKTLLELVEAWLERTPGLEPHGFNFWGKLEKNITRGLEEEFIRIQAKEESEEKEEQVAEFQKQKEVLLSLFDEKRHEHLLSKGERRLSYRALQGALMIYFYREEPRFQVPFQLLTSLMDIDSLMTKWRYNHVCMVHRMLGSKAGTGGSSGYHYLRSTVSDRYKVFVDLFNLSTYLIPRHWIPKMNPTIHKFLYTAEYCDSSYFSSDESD
Procedure: (§2) Determine Inhibitor Activity Against IDO or TDO in Cell Based Kynurenine Assay
(§3) IDO1-expressing or TDO-expressing HEK293 cell clones are generated upon stable transfection of plasmids expressing human IDO or human TDO under the control of CMV promoter. Cells are selected in DMEM media supplemented with 10% fetal bovine serum and 1 mg/ml G418 at 37° C. in a humidified incubator supplied with 5% CO2. The assays are performed as follows.
(§4) Cells were seeded in a 96 well plate in 50 μL of culture media at a density of 2.5×10^4 per well. Serial dilutions of compounds (in total volume of 50 μL culture media) are added into cells. 4 wells containing 0.2% DMSO treated cells serve as high controls and 4 wells containing media only with 0.2% DMSO serve as low controls. After 24 hours of incubation, the supernatant was transferred to a 384 well reaction plate and the kynurenine level determined. The percentage inhibition at individual concentrations relative to high and low controls is calculated. The data is analyzed by using nonlinear regression to generate IC50 values.

[3] = target: T3, human IDO (IDO1-expressing HEK293 cells) (Homo sapiens, UniProt P14902); assay: Cell based kynurenine assay, IDO1-expressing HEK293 cell clones; conditions: IDO1-expressing HEK293 cells, 24 hours incubation; geometric mean; read-out: HEK293 IDO1 Kynurenine GMean IC50 (μM) (Cellular Assay)
T3 construct: expressed in transfected cells
T3 sequence (P14902 whole entry): as the sequence (P14902 whole entry) above
Procedure: as §2, §3, §4

[4] = target: T4, Human Tryptophan 2,3-dioxygenase (TDO) (Homo sapiens, UniProt P48775); assay: Human TDO enzymatic assay (kynurenine level); assay type: biochemical; conditions: 1 nM TDO, 350 μM L-Trp; geometric mean; read-out: TDO GMean: IC50 (μM) (Biochemical Assay)
T4 construct: His tag (N); made in house; host or cells: E. coli
T4 sequence (P48775 whole entry): as the sequence (P48775 whole entry) above
Outline: as §1

OC(CC1CCCCC1)c1cc(Cl)cc2cn[nH]c12 (stereo not drawn) [Compound P-0007, 1-(5-chloro-1H-indazol-7-yl)-2-cyclohexylethan-1-ol]
IC50 [1]: 0.0001 to 10 µM
IC50 [2]: 0.0001 to 10 µM
IC50 [3]: 0.0001 to 10 µM
IC50 [4]: 0.0001 to 10 µM

CC(C)(C1CCCCC1)C(O)c1cc(Cl)cc2cn[nH]c12 (stereo not drawn) [Compound P-0008, 1-(5-chloro-1H-indazol-7-yl)-2-cyclohexyl-2-methylpropan-1-ol]
IC50 [1]: 0.0001 to 10 µM
IC50 [2]: 0.0001 to 10 µM
IC50 [3]: 0.0001 to 10 µM
IC50 [4]: 0.0001 to 10 µM

OC(CCC1CCCCC1)c1cc(Cl)cc2cn[nH]c12 (stereo not drawn) [Compound P-0009, 1-(5-chloro-1H-indazol-7-yl)-3-cyclohexylpropan-l-ol]
IC50 [1]: 0.0001 to 10 µM
IC50 [2]: > 10 µM
IC50 [3]: 0.0001 to 10 µM
IC50 [4]: 0.0001 to 10 µM

OC(c1cc(Cl)cc2cn[nH]c12)C12CC3CC(CC(C3)C1)C2 [Compound P-0010, ((1S,3s)-adamantan-l-yl)(5-chloro-1H-indazol-7-yl)methanol]
IC50 [1]: 0.0001 to 10 µM
IC50 [2]: 0.0001 to 10 µM
IC50 [3]: 0.0001 to 10 µM
IC50 [4]: 0.0001 to 10 µM

OC1(c2cc(Cl)cc3cn[nH]c23)CC2(CCC2)C1 [Compound P-0012, 2-(5-chloro-1H-indazol-7-yl)spiro[3.3]heptan-2-ol]
IC50 [1]: 0.0001 to 10 µM
IC50 [2]: 0.0001 to 10 µM
IC50 [3]: > 10 µM
IC50 [4]: 0.0001 to 10 µM

CC1(C(O)c2cc(C(F)(F)F)cc3cn[nH]c23)CCCCC1 (stereo not drawn) [Compound P-0013, (1-methylcyclohexyl)(5-(trifluoromethyl)-1H-indazol-7-yl)methanol]
IC50 [1]: 0.0001 to 10 µM
IC50 [2]: 0.0001 to 10 µM
IC50 [3]: 0.0001 to 10 µM
IC50 [4]: 0.0001 to 10 µM

Cc1cc(C(O)C2(C)CCCCC2)c2[nH]ncc2c1 (stereo not drawn) [Compound P-0014, (5-methyl-1H-indazol-7-yl)(1-methylcyclohexyl)methanol]
IC50 [1]: 0.0001 to 10 µM
IC50 [2]: 0.0001 to 10 µM
IC50 [3]: 0.0001 to 10 µM
IC50 [4]: 0.0001 to 10 µM

OC(c1cc(Cl)cc2cn[nH]c12)C1CC(F)(F)C1 (stereo not drawn) [Compound P-0017, (5-chloro-1H-indazol-7-yl)(3,3-difluorocyclobutyl)methanol]
IC50 [1]: 0.0001 to 10 µM
IC50 [2]: 0.0001 to 10 µM
IC50 [3]: 0.0001 to 10 µM
IC50 [4]: 0.0001 to 10 µM

CC1(C(O)c2cc(Cl)cc3cn[nH]c23)CC(F)(F)C1 (stereo not drawn) [Compound P-0018, (5-chloro-1H-indazol-7-yl)(3,3-difluoro-1-methylcyclobutyl)methanol]
IC50 [1]: 0.0001 to 10 µM
IC50 [2]: 0.0001 to 10 µM
IC50 [3]: 0.0001 to 10 µM
IC50 [4]: 0.0001 to 10 µM

CC1(C(O)c2cc(Cl)cc3cn[nH]c23)CCCC1 (stereo not drawn) [Compound P-0021, (5-chloro-1H-indazol-7-yl)(1-methylcyclopentyl)methanol]
IC50 [1]: 0.0001 to 10 µM
IC50 [2]: 0.0001 to 10 µM
IC50 [3]: 0.0001 to 10 µM
IC50 [4]: 0.0001 to 10 µM

OC(c1cc(Cl)cc2cn[nH]c12)C1CCC(F)(F)CC1 (stereo not drawn) [Compound P-0022, (5-chloro-1H-indazol-7-yl)(4,4-difluorocyclohexyl)methanol]
IC50 [1]: 0.0001 to 10 µM
IC50 [2]: 0.0001 to 10 µM
IC50 [3]: 0.0001 to 10 µM
IC50 [4]: 0.0001 to 10 µM

CC1(C(O)c2c(Cl)c(Cl)cc3cn[nH]c23)CCCCC1 (stereo not drawn) [Compound P-0025, (5,6-dichloro-1H-indazol-7-yl)(1-methylcyclohexyl)methanol]
IC50 [1]: 0.0001 to 10 µM
IC50 [2]: 0.0001 to 10 µM
IC50 [3]: 0.0001 to 10 µM
IC50 [4]: 0.0001 to 10 µM

CC(C)(Cc1ccccc1)C(O)c1cc(Cl)cc2cn[nH]c12 (stereo not drawn) [Compound P-0026, 1-(5-chloro-1H-indazol-7-yl)-2,2-dimethyl-3-phenylpropan-1-ol]
IC50 [1]: 0.0001 to 10 µM
IC50 [2]: 0.0001 to 10 µM
IC50 [3]: 0.0001 to 10 µM
IC50 [4]: 0.0001 to 10 µM

CC(C)(c1ccccc1)C(O)c1cc(Cl)cc2cn[nH]c12 (stereo not drawn) [Compound P-0027, 1-(5-chloro-1H-indazol-7-yl)-2-methyl-2-phenylpropan-1-ol]
IC50 [1]: 0.0001 to 10 µM
IC50 [2]: 0.0001 to 10 µM
IC50 [3]: 0.0001 to 10 µM
IC50 [4]: 0.0001 to 10 µM

CS(=O)(=O)N1CC2(C1)CC(O)(c1cc(Cl)cc3cn[nH]c13)C2 [Compound P-0028, 6-(5-chloro-1H-indazol-7-yl)-2-(methylsulfonyl)-2-azaspiro[3.3]heptan-6-ol]
IC50 [1]: 10 to 100 µM
IC50 [2]: 0.0001 to 10 µM
IC50 [3]: > 10 µM
IC50 [4]: 0.0001 to 10 µM

OC1(c2cc(Cl)cc3cn[nH]c23)CC2(CCOCC2)C1 [Compound P-0029, 2-(5-chloro-1H-indazol-7-yl)-7-oxaspiro[3.5]nonan-2-ol]
IC50 [1]: 0.0001 to 10 µM
IC50 [2]: 0.0001 to 10 µM
IC50 [3]: 0.0001 to 10 µM
IC50 [4]: 0.0001 to 10 µM

Cc1cc(C2(O)CC3(CCC3)C2)c2[nH]ncc2c1 [Compound P-0030, 2-(5-methyl-1H-indazol-7-yl)spiro[3.3]heptan-2-ol]
IC50 [1]: 0.0001 to 10 µM
IC50 [2]: > 10 µM
IC50 [3]: > 10 µM
IC50 [4]: 0.0001 to 10 µM

OC1(c2cc(C(F)(F)F)cc3cn[nH]c23)CC2(CCC2)C1 [Compound P-0031, 2-(5-(trifluoromethyl)-1H-indazol-7-yl)spiro[3.3]heptan-2-ol]
IC50 [1]: 0.0001 to 10 µM
IC50 [2]: > 10 µM
IC50 [3]: > 10 µM
IC50 [4]: 0.0001 to 10 µM

CC1(C(O)c2cc(Cl)cc3cn[nH]c23)CCC(F)(F)CC1 (stereo not drawn) [Compound P-0032, (5-chloro-1H-indazol-7-yl)(4,4-difluoro-1-methylcyclohexyl)methanol]
IC50 [1]: 0.0001 to 10 µM
IC50 [2]: 0.0001 to 10 µM
IC50 [3]: 0.0001 to 10 µM
IC50 [4]: 0.0001 to 10 µM

OC(c1cc(Cl)cc2cn[nH]c12)C1(F)CCC(F)(F)CC1 (stereo not drawn) [Compound P-0033, (5-chloro-1H-indazol-7-yl)(1,4,4-trifluorocyclohexyl)methanol]
IC50 [1]: 0.0001 to 10 µM
IC50 [2]: 0.0001 to 10 µM
IC50 [3]: 0.0001 to 10 µM
IC50 [4]: 0.0001 to 10 µM

CS(=O)(=O)N1CCC2(CC1)CC(O)(c1cc(Cl)cc3cn[nH]c13)C2 [Compound P-0034, 2-(5-chloro-1H-indazol-7-yl)-7-(methylsulfonyl)-7-azaspiro[3.5]nonan-2-ol]
IC50 [1]: 0.0001 to 10 µM
IC50 [2]: 0.0001 to 10 µM
IC50 [3]: 0.0001 to 10 µM
IC50 [4]: 0.0001 to 10 µM

O=S(=O)(C1CC1)N1CCC2(CC1)CC(O)(c1cc(Cl)cc3cn[nH]c13)C2 [Compound P-0035, 2-(5-chloro-1H-indazol-7-yl)-7-(cyclopropylsulfonyl)-7-azaspiro[3.5]nonan-2-ol]
IC50 [1]: 0.0001 to 10 µM
IC50 [2]: 0.0001 to 10 µM
IC50 [3]: > 10 µM
IC50 [4]: 0.0001 to 10 µM

OC1(c2c(Cl)c(Cl)cc3cn[nH]c23)CC2(CCC2)C1 [Compound P-0036, 2-(5,6-dichloro-1H-indazol-7-yl)spiro[3.3]heptan-2-ol]
IC50 [1]: 0.0001 to 10 µM
IC50 [2]: > 10 µM
IC50 [3]: 0.0001 to 10 µM
IC50 [4]: 0.0001 to 10 µM

Cc1ccc2cn[nH]c2c1C(O)C12CC3CC(CC(C3)C1)C2 (stereo not drawn) [Compound P-0037, ((ls,3s)-adamantan-1-yl)(6-methyl-1H-indazol-7-yl)methanol]
IC50 [1]: 0.0001 to 10 µM
IC50 [2]: > 10 µM
IC50 [3]: 0.0001 to 10 µM
IC50 [4]: 0.0001 to 10 µM

CS(=O)(=O)NC1CC(O)(c2cc(Cl)cc3cn[nH]c23)C1 (stereo not drawn) [Compound P-0038, N-(3-(5-chloro-1H-indazol-7-yl)-3-hydroxycyclobutyl)methanesulfonamide]
IC50 [1]: 0.0001 to 10 µM
IC50 [2]: 0.0001 to 10 µM
IC50 [3]: > 10 µM
IC50 [4]: 0.0001 to 10 µM

OC1(c2cc(Cl)cc3cn[nH]c23)CC2(COC2)C1 [Compound P-0039, 6-(5-chloro-1H-indazol-7-yl)-2-oxaspiro[3.3]heptan-6-ol]
IC50 [1]: 0.0001 to 10 µM
IC50 [2]: 0.0001 to 10 µM
IC50 [3]: 0.0001 to 10 µM
IC50 [4]: 0.0001 to 10 µM

OC1(c2cc(Cl)cc3cn[nH]c23)CC2(CSC2)C1 [Compound P-0040, 6-(5-chloro-1H-indazol-7-yl)-2-thiaspiro[3.3]heptan-6-ol]
IC50 [1]: 0.0001 to 10 µM
IC50 [2]: 0.0001 to 10 µM
IC50 [3]: 0.0001 to 10 µM
IC50 [4]: 0.0001 to 10 µM

CC1(C(O)c2cc(F)cc3cn[nH]c23)CCCCC1 (stereo not drawn) [Compound P-0041, (5-fluoro-1H-indazol-7-yl)(1-methylcyclohexyl)methanol]
IC50 [1]: 0.0001 to 10 µM
IC50 [2]: 0.0001 to 10 µM
IC50 [3]: 0.0001 to 10 µM
IC50 [4]: 0.0001 to 10 µM

OC(c1cc(F)cc2cn[nH]c12)C1CCCCC1 (stereo not drawn) [Compound P-0042, cyclohexyl(5-fluoro-1H-indazol-7-yl)methanol]
IC50 [1]: 0.0001 to 10 µM
IC50 [2]: 0.0001 to 10 µM
IC50 [3]: 0.0001 to 10 µM
IC50 [4]: 0.0001 to 10 µM

OC(c1cc(F)cc2cn[nH]c12)C12CC3CC(CC(C3)C1)C2 (stereo not drawn) [Compound P-0043, adamantan-1-yl(5-fluoro-1H-indazol-7-yl)methanol]
IC50 [1]: 0.0001 to 10 µM
IC50 [2]: > 10 µM
IC50 [3]: 0.0001 to 10 µM
IC50 [4]: 0.0001 to 10 µM
